Earlier results as cited in US11686722B2, “Compositions and methods to detect molecules in a sample” (Infusense Corp., priority 2016, dated 2023).
Read-outs that look alike come from different tables or passages of the source.

Experiments:
[1] = neutral pH, shake-flask methodology
[2] = neutral pH, reverse-phase HPLC estimation

| Compound | time until metabolite appears in the urine, typical (following a dose of THC, urine) [h] | time until metabolite appears in the urine, longest (following a dose of THC, urine, can take as long as) [h] | n-octanol/water partition coefficient (KOW) [1] | n-octanol/water partition coefficient (KOW) [2] | clearance half-life (in vivo) | detectability in urine (urine) |
| --- | --- | --- | --- | --- | --- | --- |
| CCCCCc1cc(O)c2c(c1)OC(C)(C)C1CCC(C(=O)O)=CC21 (stereo not drawn) [11-nor-9-carboxy-THC, 11-nor-9-carboxy-tetrahydrocannabinol] | ≤ 1 | ≤ 4 |  |  |  |  |
| CCCCCc1cc(O)c2c(c1)OC(C)(C)[C@@H]1CCC(C)=C[C@@H]21 [THC, Δ^9-tetrahydrocannabinol] |  |  | 6000 | 9,440,000 | less than 30 minutes | not detectable in urine |
